Experimental data reported in patent US7169778B2, “Pteridinones as kinase inhibitors” (Warner-Lambert Company, priority 1999, dated 2007).

Key:
[1] = molecular target: T1, mouse PDGF-β receptor tyrosine kinase (Mus musculus, UniProt P05622); assay: PDGF receptor tyrosine kinase assay; assay type: biochemical
T1 construct: amplify a fragment of DNA that codes for the intracellular tyrosine kinase domain; made in house; host or cells: SF9 insect cells (baculovirus)
Source text: (§1) Full-length cDNAs for the mouse PDGF-β and human FGF-1 (flg) receptor tyrosine kinases were obtained from J. Escobedo and prepared as described in J. Biol. Chem., 1991;262:1482–1487. PCR primers were designed to amplify a fragment of DNA that codes for the intracellular tyrosine kinase domain. The fragment was inserted into a baculovirus vector, cotransfected with AcMNPV DNA, and the recombinant virus isolated. SF9 insect cells were infected with the virus to overexpress the protein, and the cell lysate was used for the assay. Assays were performed in 96-well plates (100 μL/incubation/well), and conditions were optimized to measure the incorporation of ^32P from γ^32P-ATP into a glutamate-tyrosine co-polymer substrate. Briefly, to each well was added 82.5 μL of incubation buffer containing 25 mM Hepes (pH 7.0), 150 mM NaCl, 0.1% Triton X-100, 0.2 mM PMSF, 0.2 mM Na3VO4, 10 mM MnCl2, and 750 μg/mL of Poly (4:1) glutamate-tyrosine followed by 2.5 μL of inhibitor and 5 μL of enzyme lysate (7.5 μg/μL FGF-TK or 6.0 μg/μL PDGF-TK) to initiate the reaction. Following a 10 minute incubation at 25° C., […] of γ^32P-ATP (0.4 μCi plus 50 μM ATP) was added to each well, and samples were incubated for an additional 10 minutes at 25° C. The reaction was terminated by the addition of 100 μL of 30% TCA containing 20 mM sodium pyrophosphate and precipitation of material onto glass fiber mats (Wallac). Filters were washed three times with 15% TCA containing 100 mM sodium pyrophosphate, and the radioactivity retained on the filters counted in a Wallac 1250 Betaplate reader. Nonspecific activity was defined as radioactivity retained on the filters following incubation of samples with buffer alone (no enzyme). Specific enzymatic activity (enzyme plus buffer) was defined as total activity minus nonspecific activity. The concentration of a compound that inhibited specific activity by 50% (IC50) was determined based on the inhibition curve.

[2] = molecular target: N-terminal truncated Wee 1 (Homo sapiens, UniProt P30291); assay: Wee 1 OY kinase assay; assay type: biochemical; conditions: read-out: WEE1OY IC50
Procedure: These kinase assays are carried out on 96-well filter plates (Millpore, Cat. MADPN0B50) in 50 μL kinase assay buffer (50 mM Tris, pH 8.0, 10 mM NaCl, 10 mM MgCl2, 10 μM ATP with 0.25 μCi [r-32P]ATP, 1 mM DTT) with 0.1 μg purified N-terminal truncated Wee 1 and 6 μg poly(Orn, Tyr)4:1 (Sigma, P4534). The assay is started by adding ATP and incubating at room temperature for 20 minutes with shaking. The reactions are terminated by adding 50 μL ice-cold 20% TCA (trichloracetic acid) with 0.1 M sodium pyrophosphate and shaking the resultant mixture for 1 minute. The plate is then incubated at 4° C. for 1 hour to allow protein to precipitate. These plates are then washed 5 times with 200 μL ice-cold 10% TCA and with 0.1 M sodium pyrophosphate per wash. Twenty-five microliters scintillation liquid is then added to each well, and the plate is counted in Wallac's MicroBeta counter 1450.

[3] = molecular target: T2, human FGF-1 (flg) receptor tyrosine kinase (Homo sapiens, UniProt P11362); assay: FGF receptor tyrosine kinase assay; assay type: biochemical; conditions: for inhibition at 5 µM: @ 5 (unit μm), read-out: FGF % @ concentration
T2 construct: amplify a fragment of DNA that codes for the intracellular tyrosine kinase domain; made in house; host or cells: SF9 insect cells (baculovirus)
Source text: as §1

[4] = molecular target: C-src kinase (Homo sapiens, UniProt P12931); assay: C-src kinase assay; assay type: biochemical
Procedure: C-src kinase was purified from baculovirus infected insect cell lysates using an antipeptide monoclonal antibody directed against the N-terminal amino acids (amino acids 2–17) of c-src. The antibody, covalently linked to 0.65 μm latex beads, was added to a suspension of insect cell lysis buffer comprised of 150 mM NaCl, 50 mM Tris pH 7.5, 1 mM DTT, 1% NP-40, 2 mM EGTA, 1 mM sodium vanadate, 1 mM PMSF, 1 μg/mL each of leupeptin, pepstatin, and aprotinin. Insect cell lysate containing c-src protein was incubated with these beads for 3 to 4 hours at 4° C. with rotation. At the end of the lysate incubation, the beads were rinsed three times in lysis buffer, resuspended in lysis buffer containing 10% glycerol, and frozen. These latex beads were thawed, rinsed three times in assay buffer (40 mM Tris, pH 7.5, 5 mM mgCl2) and suspended in the same buffer. In a Millipore 96-well plate with a 0.65 μm polyvinylidine membrane bottom were added the reaction components: 10 μL C-src beads, 10 μL of 2.5 mg/mL poly GluTyr substrate, 5 μM ATP containing 0.2 μCi labeled ^32P-ATP, 5 μL DMSO containing inhibitors or as a solvent control, and buffer to make the final volume 125 μL. The reaction was started at room temperature by addition of the ATP and quenched 10 minutes later by the addition of 125 μL of 30% TCA, 0.1 M sodium pyrophosphate for 5 minutes on ice. The plate was then filtered and the wells washed with two […] aliquots of 15% TCA, 0.1 M pyrophosphate. The filters were then punched, counted in a liquid scintillation counter, and the data examined for inhibitory activity in comparison to a known inhibitor such as erbstatin. The method is also described in J. Med. Chem., 1994;37:598–609.

C-src kinase, sequence (P12931 whole entry, the tested form may be a part): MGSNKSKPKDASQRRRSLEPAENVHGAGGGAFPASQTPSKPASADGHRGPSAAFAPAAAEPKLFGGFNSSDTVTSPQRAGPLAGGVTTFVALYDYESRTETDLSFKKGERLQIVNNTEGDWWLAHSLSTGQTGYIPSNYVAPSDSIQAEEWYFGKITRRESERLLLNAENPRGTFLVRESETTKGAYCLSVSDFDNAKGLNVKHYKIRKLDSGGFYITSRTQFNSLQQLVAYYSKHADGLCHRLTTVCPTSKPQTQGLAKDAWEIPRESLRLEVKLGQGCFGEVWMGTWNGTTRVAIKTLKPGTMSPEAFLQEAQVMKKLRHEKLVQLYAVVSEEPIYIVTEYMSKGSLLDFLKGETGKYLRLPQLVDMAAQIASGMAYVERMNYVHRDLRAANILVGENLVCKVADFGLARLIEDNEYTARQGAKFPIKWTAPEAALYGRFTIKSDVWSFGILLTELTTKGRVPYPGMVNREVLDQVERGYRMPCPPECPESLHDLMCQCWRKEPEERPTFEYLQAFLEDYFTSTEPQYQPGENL
T1 sequence (P05622 599-961 limits assumed): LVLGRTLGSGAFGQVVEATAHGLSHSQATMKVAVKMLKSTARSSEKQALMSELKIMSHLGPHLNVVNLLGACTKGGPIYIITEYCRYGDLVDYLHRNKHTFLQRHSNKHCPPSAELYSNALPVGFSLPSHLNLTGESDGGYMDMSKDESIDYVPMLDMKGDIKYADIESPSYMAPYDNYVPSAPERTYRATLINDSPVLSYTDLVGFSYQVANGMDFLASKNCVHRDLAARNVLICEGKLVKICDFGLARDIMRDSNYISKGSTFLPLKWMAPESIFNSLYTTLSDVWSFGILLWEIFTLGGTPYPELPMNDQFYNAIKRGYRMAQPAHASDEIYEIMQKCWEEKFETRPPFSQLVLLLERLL
N-terminal truncated Wee 1, sequence (P30291 299-569 limits assumed): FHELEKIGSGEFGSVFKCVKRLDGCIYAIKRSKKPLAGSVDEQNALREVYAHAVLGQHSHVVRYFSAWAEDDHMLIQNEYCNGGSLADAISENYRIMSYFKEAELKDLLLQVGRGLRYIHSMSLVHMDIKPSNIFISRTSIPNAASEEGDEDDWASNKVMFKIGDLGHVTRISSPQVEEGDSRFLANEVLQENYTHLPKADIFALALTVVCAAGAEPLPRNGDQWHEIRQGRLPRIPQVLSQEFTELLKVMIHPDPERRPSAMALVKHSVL
T2 sequence (P11362 478-767 limits assumed): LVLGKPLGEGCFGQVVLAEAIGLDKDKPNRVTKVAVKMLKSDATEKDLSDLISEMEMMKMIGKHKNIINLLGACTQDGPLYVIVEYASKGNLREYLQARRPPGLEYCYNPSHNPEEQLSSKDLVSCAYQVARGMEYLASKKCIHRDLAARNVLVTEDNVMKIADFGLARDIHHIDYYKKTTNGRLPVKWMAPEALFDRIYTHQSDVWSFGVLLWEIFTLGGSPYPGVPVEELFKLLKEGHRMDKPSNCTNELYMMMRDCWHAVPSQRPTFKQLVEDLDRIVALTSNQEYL

SMILES: CCN(CC)CCOc1ccc(Nc2ncc3nc(-c4c(Cl)cccc4Cl)c(=O)n(C)c3n2)cc1 [Compound 4, 6-(2,6Dichlorophenyl)-2-[[4-[2-(diethylamino)ethoxy]phenyl]amino]-8-methyl-8H-pteridin-7-one]
- melting point: 156 to 161 °C
- IC50 [1]: 0.7 µM
- IC50 [2]: 0.861 µM
- inhibition at 5 µM [3]: 69%
- IC50 [4]: 0.015 µM

SMILES: CCN(CC)C(=O)c1ccc(Nc2ncc3nc(-c4ccccc4)c(=O)n(C)c3n2)cc1 [Compound 5, 2-[[4-(Diethylaminocarbonyl)phenyl]amino]-8-methyl-6-phenyl-8H-pteridin-7-one]
- melting point: 250 to 252 °C
- IC50 [1]: > 50 µM
- IC50 [2]: > 50 µM
- inhibition at 5 µM [3]: 38%
- IC50 [4]: > 50 µM

SMILES: CCN(CC)CCOc1ccc(Nc2ncc3nc(-c4ccccc4)c(=O)n(C)c3n2)cc1 [Compound 3, 2-[[4-[2-(Diethylamino)ethoxy]phenyl]amino]-8-methyl-6-phenyl-8H-pteridin-7-one]
- melting point: 162 to 165 °C
- IC50 [1]: 7.55 µM
- IC50 [2]: > 50 µM
- inhibition at 5 µM [3]: 54%
- IC50 [4]: 1.53 µM

SMILES: Cn1c(=O)c(-c2c(Cl)cncc2Cl)nc2cnc(Nc3ccc(N4CCOCC4)cc3)nc21 [Compound 12, 6-(3,5-Dichloropyridin-4-yl)-8-methyl-2-[[4-(morpholin-4-yl)phenyl]amino]-8H-pteridin-7-one]
- melting point: 243 to 245 °C
- IC50 [1]: 25.4 µM
- IC50 [2]: 1.01 µM
- IC50 [4]: 0.38 µM

SMILES: CCN(CC)C(=O)c1ccc(Nc2ncc3nc(-c4c(Cl)c(OC)nc(OC)c4Cl)c(=O)n(C)c3n2)cc1 [Compound 22, 6-(3,5Dichloro-2,6-dimethoxypyridin-4-yl)-2-[[4-(diethylaminocarbonyl)phenyl]amino]-8-methyl-8H-pteridin-7-one]
- melting point: 274 to 276 °C
- IC50 [2]: > 50 µM
- IC50 [3]: 0.16 µM
- IC50 [4]: 47 µM

SMILES: Cn1c(=O)c(-c2ccccc2)nc2cnc(Nc3ccc(N4CCOCC4)cc3)nc21 [Compound 1]
- melting point: 302 to 304.5 °C
- IC50 [1]: > 50 µM
- IC50 [2]: > 50 µM
- IC50 [3]: > 50 µM
- IC50 [4]: > 50 µM

SMILES: CCN(CC)CCOc1ccc(Nc2ncc3nc(-c4c(Cl)cncc4Cl)c(=O)n(C)c3n2)cc1 [Compound 20, 6-(3,5-Dichloropyridin-4-yl)-8-methyl-2-[[4-[2-(diethylamino)ethoxy]-phenyl]amino]-8H-pteridin-7-one]
- melting point: 179 to 180.5 °C
- IC50 [2]: 7.07 µM
- IC50 [4]: 0.12 µM

SMILES: CCN(CC)CCOc1ccc(Nc2ncc3nc(-c4cc(OC)cc(OC)c4)c(=O)n(CC)c3n2)cc1 [Compound 14, 6-(3,5-Dimethoxyphenyl)-8-ethyl-2-[[4-[2-(diethylamino)ethoxyl]-phenyl]amino]-8H-pteridin-7-one]
- melting point: 154 to 155 °C
- IC50 [3]: 30 µM

SMILES: Cn1c(=O)c(-c2c(Cl)cccc2Cl)nc2cnc(Nc3ccc(N4CCOCC4)cc3)nc21 [Compound 2, 6-(2,6-Dichlorophenyl)-8-methyl-2-[[4-(morpholin-4-yl)phenyl]amino]-8H-pteridin-7-one]
- melting point: 292 to 293 °C
- IC50 [1]: 7.7 µM
- IC50 [2]: 0.144 µM
- IC50 [3]: > 50 µM
- IC50 [4]: 0.057 µM

SMILES: O=c1[nH]c2cnc(Nc3ccc(N4CCOCC4)cc3)nc2n(C2CCCC2)c1=O [Compound 23, 8-Cyclopentyl-2-[[4-(morpholin-4-yl]phenyl]amino]-5H,8H-pteridine-6,7-dione]
- melting point: 283 to 286 °C

SMILES: CCn1c(=O)c(-c2cc(OC)cc(OC)c2)nc2cnc(Nc3ccncc3)nc21 [Compound 15, 6-(3,5-Dimethoxyphenyl)-8-ethyl-2-[(pyridin-4-yl)amino]-8H-pteridin-7-one]
- melting point: 245 to 246.5 °C

SMILES: COc1nc(OC)c(Cl)c(-c2nc3cnc(Nc4ccc(N5CCOCC5)cc4)nc3n(C)c2=O)c1Cl [Compound 18, 6-(3,5-Dichloro-2,6-dimethoxypyridin-4-yl)-8-methyl-2-[[4-(morpholin-4-yl)phenyl]amino]-8H-pteridin-7-one]
- melting point: 275 to 276 °C
- IC50 [2]: > 50 µM
- IC50 [3]: 0.23 µM
- IC50 [4]: 20 µM

SMILES: CN1CCN(c2ccc(Nc3ncc4[nH]c(=O)c(=O)n(C5CCCC5)c4n3)cc2)CC1 [Compound 24, 8-Cyclopentyl-2-[[4-(4-methylpiperazin-1-yl)phenyl]amino]-5H,8H-pteridine-6,7-dione]
- melting point: 266 to 270 °C
- IC50 [4]: 4.35 µM

SMILES: Cn1c(=O)c(-c2c(Br)cncc2Br)nc2cnc(Nc3ccc(N4CCOCC4)cc3)nc21 [Compound 19, 6-(3,5-Dibromopyridin-4-yl)-8-methyl-2-[[4-(morpholin-4-yl)phenyl]amino]-8H-pteridin-7-one]
- melting point: 204 to 206 °C
- IC50 [2]: 7.4 µM
- IC50 [4]: 1.45 µM

SMILES: CCN(CC)C(=O)c1ccc(Nc2ncc3nc(-c4c(Cl)cccc4Cl)c(=O)n(C)c3n2)cc1 [Compound 6, 6-(2,6-Dichlorophenyl)-2-[[4-(diethylaminocarbonyl)phenyl]amino]-8-methyl-8H-pteridin-7-one]
- melting point: 239 to 241 °C
- IC50 [1]: 3.13 µM
- IC50 [2]: 0.987 µM
- IC50 [3]: 0.05 µM
- IC50 [4]: 0.29 µM

SMILES: CCN(CC)C(=O)c1ccc(Nc2ncc3nc(-c4c(Cl)cncc4Cl)c(=O)n(C)c3n2)cc1 [Compound 13, 6-(3,5-Dichloropyridin-4yl)-2-[[4-(diethylaminocarbonyl)phenyl]-amino]-8-methyl-8H-pteridin-7-one]
- melting point: 230 to 231 °C
- IC50 [2]: 4.49 µM
- inhibition at 5 µM [3]: 17%
- IC50 [4]: 0.5 µM

SMILES: CCN(CC)CCOc1ccc(Nc2ncc3nc(-c4c(Cl)c(OC)nc(OC)c4Cl)c(=O)n(C)c3n2)cc1 [Compound 21, 6-(3,5-Dichloro-2,6-dimethoxypyridin-4-yl)-8-methyl-2-[[4-[2-(diethylamino)ethoxy]phenyl]amino]-8H-pteridin-7-one]
- IC50 [2]: > 50 µM
- IC50 [3]: 0.054 µM
- IC50 [4]: 6.8 µM
